Values after ≈ are worked out from the molar mass of the structure shown. Like-named read-outs stand apart in the source and are kept apart here. Non-standard residues stand in square brackets, D forms with d. Residues, ends and D or L forms follow the SMILES beside them. *: point of attachment. Orn(α-tetramethylguanidino) = CN(C)C(=N[C@@H](CCCN)C(=O)*)N(C)C; Ac6c = NC1(C(=O)O)CCCCC1
Tests used:
[1] = test system: C. neoformans H99 (serotype A); conditions: for MIC (μmol/L) H99 24 h: H99 (serotype A, 24 h)
[2] = test system: C. neoformans 1841 (serotype D); conditions: for MIC (μmol/L) 1841 48 h: 1841 (serotype D, 48 h, pH 7.5)
[3] = test system: C. neoformans KN99α (serotype A, mating type MATα); conditions: for MIC (μmol/L) KN99α 48 h: KN99α (serotype A, mating type MATα, 48 h)
C. neoformans KN99α = assay: Antifungal activity assay (CFU on SAB agar); type: cell-based, Cryptococcus neoformans; conditions: treatment 3 h, 30 °C, mean ± SD, n = 4; for cell count C. neoformans KN99α, 24 h: CFU counted after 24 h; for cell count C. neoformans KN99α, 48 h: CFU counted after 48 h
[4] = test system: C. neoformans strains 1841, H99, and KN99α; assay: Antifungal activity assay (CFU); type: cell-based, Cryptococcus neoformans
C. neoformans H99 = assay: Antifungal activity assay (CFU on SAB agar); type: cell-based, Cryptococcus neoformans; conditions: treatment 3 h, 30 °C, mean ± SD, n = 4; for cell count C. neoformans H99, 24 h: CFU counted after 24 h; for cell count C. neoformans H99, 48 h: CFU counted after 48 h
C. neoformans 1841 [5] = assay: Scanning electron microscopy, damaged cells; type: cell-based, Cryptococcus neoformans; conditions: 200 μmol/L, 10^8 CFU/mL, 3 h, 30°C
Experimental: Overnight cultures of C. neoformans 1841 were prepared as described and adjusted with 50% SAB in phosphate buffer to reach 1 × 10^8 CFU/mL. Aqueous peptide solutions (20 μL) were added to the cell suspension (80 μL) to give a final peptide concentration of 200 μmol/L. Samples were incubated at 30°C on an orbital shaker (750 rpm) for 3 h. Samples were centrifuged (2,000 × g, 10 min, 4°C, Microfuge 22R, Beckmann Coulter), cell pellets were washed with ice-cold phosphate-buffered saline (PBS, 100 μL) and centrifuged again. Cell pellets were re-suspended in PBS (25 μL) and adhered overnight in humid atmosphere to glass coverslips (Borosilicate Glass, VWR International GmbH) previously coated with 0.001% poly-L-lysine (in case of Critical-Point Drying). Cells were fixed (2% glutaraldehyde, 2% paraformaldehyde, in PBS) for 60 min and afterwards stained with 1% OsO4 in PBS for 60 min. The cells were gradually dehydrated in ethanol series (30, 50, 70, 85, 90, 96% (once), and 100% (thrice) for 10 min. The coverslips were critical-point-dried (Baltec CPD 030, BAL-TEC GmbH, Schalksmühle, Germany) or air-dried after incubation with HMDS (3 min, RT) and sputter coated with 20 nm gold/palladium (Baltec MED 020, BAL-TEC GmbH). Cells were visualized using the SEM secondary electron detector (Zeiss EVO LS 15 LaB6, Carl Zeiss Microscopy Deutschland GmbH).
GraphPad Prism 10.0.3 software was used for statistical analysis of the recorded data. A Dunnett’s multiple comparisons test (Ordinary-one-way ANOVA) was performed.

C. neoformans 1841 [6] = assay: Antifungal activity assay (CFU on SAB agar); type: cell-based, Cryptococcus neoformans; conditions: treatment 3 h, 30 °C, mean ± SD, n = 4; for cell count C. neoformans 1841, 24 h: CFU counted after 24 h; for cell count C. neoformans 1841, 48 h: CFU counted after 48 h
C. neoformans 1841 [7] = assay: Time-kill assay; type: cell-based, Cryptococcus neoformans; conditions: 2.5 μmol/L, 30°C, up to 24 h
Experimental: The kinetic effects of the antifungal activity were determined by diluting overnight cultures to 5 × 10^4 CFU/mL with 50% SAB in phosphate buffer. Aqueous peptide solutions (20 μL) were added to the cell suspension (80 μL) to give a final peptide concentration of 2.5 μmol/L. Samples were incubated at 30°C on an orbital shaker (750 rpm, Titramax 1,000, Heidolph Instruments GmbH & Co. KG) for 24 h. Before incubation (0 min) and after 45 min, 90 min, 3 h, 6 h, and 24 h incubation, aliquots (10 μL) of samples were taken and diluted with phosphate buffer (10 mmol/L, pH 7.5) to observe countable cell colonies. Aliquots (100 μL) of the diluted cell suspensions were plated on SAB agar plates. Plates were incubated at 30°C and colonies were counted after 24 h.

[8] = test system: C. neoformans strains 1841, H99, and KN99α; assay: Broth microdilution assay (MIC); type: cell-based, Cryptococcus neoformans
[9] = broth microdilution, 50% SAB in phosphate buffer, 30°C, read after 48 h, n = 6
[10] = broth microdilution, 50% SAB in phosphate buffer, 30°C, read after 24 h, n = 6

| Compound | MIC (μmol/L) H99 24 h [1] [µmol/L] | MIC (μmol/L) 1841 48 h [2] [µmol/L] | MIC (μmol/L) KN99α 48 h [3] [µmol/L] | cell count C. neoformans KN99α, 24 h (C. neoformans KN99α; 0.25 µmol/L) | cell count C. neoformans KN99α, 48 h (C. neoformans KN99α; 0.25 µmol/L) | cell count C. neoformans KN99α, 24 h (C. neoformans KN99α; 2.5 µmol/L) | cell count C. neoformans KN99α, 48 h (C. neoformans KN99α; 2.5 µmol/L) | cell count C. neoformans KN99α, 24 h (C. neoformans KN99α; 25 µmol/L) | cell count C. neoformans KN99α, 48 h (C. neoformans KN99α; 25 µmol/L) | cell count C. neoformans H99, 24 h (C. neoformans H99; 0.25 µmol/L) | cell count C. neoformans H99, 48 h (C. neoformans H99; 0.25 µmol/L) | cell count C. neoformans H99, 24 h (C. neoformans H99; 2.5 µmol/L) | cell count C. neoformans H99, 48 h (C. neoformans H99; 2.5 µmol/L) | cell count C. neoformans H99, 24 h (C. neoformans H99; 25 µmol/L) | cell count C. neoformans H99, 48 h (C. neoformans H99; 25 µmol/L) | damaged cells in SEM (C. neoformans 1841 [5]) | cell count C. neoformans 1841, 24 h (C. neoformans 1841 [6]; 0.25 µmol/L) | cell count C. neoformans 1841, 48 h (C. neoformans 1841 [6]; 0.25 µmol/L) | cell count C. neoformans 1841, 24 h (C. neoformans 1841 [6]; 2.5 µmol/L) | cell count C. neoformans 1841, 48 h (C. neoformans 1841 [6]; 2.5 µmol/L) | further results |
| --- | --- | --- | --- | --- | --- | --- | --- | --- | --- | --- | --- | --- | --- | --- | --- | --- | --- | --- | --- | --- | --- |
| CC[C@H](C)[C@H](NC(=O)[C@H](Cc1ccc(O)cc1)NC(=O)[C@@H](NC(=O)[C@@H]1CCCN1C(=O)[C@H](CCCNC(=N)N)NC(=O)[C@H](CC(N)=O)NC(=O)[C@H](CC(N)=O)NC(=O)[C@H](CCCN)N=C(N(C)C)N(C)C)C(C)C)C(=O)N1CCC[C@H]1C(=O)N[C@@H](CCCNC(=N)N)C(=O)N1CCC[C@H]1C(=O)N[C@@H](CCCNC(=N)N)C(=O)N1CCC[C@H]1C(=O)N1CCC[C@H]1C(=O)N[C@@H](Cc1c[nH]cn1)C(=O)N1CCC[C@H]1C(=O)N[C@@H](CCCNC(=N)N)C(=O)N[C@@H](CC(C)C)C(N)=O [Api88] ({Orn(α-tetramethylguanidino)}-NNRPVYIPRPRPPHPRL-NH2; N-terminus and C-terminus assumed) | 7.0 (≈ 16 µg/mL) | 7.0 (≈ 16 µg/mL) | 7.0 (≈ 16 µg/mL) | 3.0 ± 0.7 x 10^4 CFU/mL | 3.1 ± 0.8 x 10^4 CFU/mL | 3.0 ± 0.6 x 10^4 CFU/mL | 3.1 ± 0.7 x 10^4 CFU/mL | 1.5 ± 0.2 x 10^4 CFU/mL | 1.6 ± 0.3 x 10^4 CFU/mL | 2.7 ± 0.4 x 10^4 CFU/mL | 2.8 ± 0.5 x 10^4 CFU/mL | 3.0 ± 0.2 x 10^4 CFU/mL | 3.3 ± 0.3 x 10^4 CFU/mL | 1.7 ± 0.2 x 10^4 CFU/mL | 2.0 ± 0.4 x 10^4 CFU/mL | only a small portion showed deep indentations | 2.4 ± 0.1 x 10^4 CFU/mL | 2.4 ± 0.1 x 10^4 CFU/mL | 1.0 ± 0.1 x 10^4 CFU/mL | 1.0 ± 0.1 x 10^4 CFU/mL | MIC (mg/L) H99 48 h [1, 9]: 8 mg/L (≈ 3.49 µM); MIC (mg/L) 1841 24 h [2, 10]: 8 mg/L (≈ 3.49 µM); MIC (mg/L) 1841 48 h [2, 9]: 16 mg/L (≈ 6.98 µM); MIC (mg/L) KN99α 24 h [3, 10]: 8 mg/L (≈ 3.49 µM); effect on CFU of C. neoformans strains H99 and KN99α ([4]; 2.5 μmol/L, 3 h incubation): did not significantly reduce the CFU; cell count C. neoformans 1841, 24 h (C. neoformans 1841 [6]; 25 µmol/L): 0.1 ± 0.0 x 10^4 CFU/mL; cell count C. neoformans 1841, 48 h (C. neoformans 1841 [6]; 25 µmol/L): 0.1 ± 0.0 x 10^4 CFU/mL; time-dependent antifungal effect (C. neoformans 1841 [7]): delayed antifungal effect; MIC at 48 h ([8]; 48 h, forward sequence compared with its scrambled sequence): 7.0 µM (≈ 16 µg/mL); MIC ([8]; strains 1841, H99, and KN99α, 24 h): ≥ 3.5 µM |
| CC(C)C[C@H](NC(=O)[C@H](Cc1ccc(O)cc1)NC(=O)[C@@H]1CCCN1C(=O)[C@H](CCCNC(=N)N)NC(=O)[C@@H]1CCCN1C(=O)[C@H](CCCCN)NC(=O)[C@H](CC(=O)O)NC(=O)[C@@H]1CCCN1C(=O)[C@H](CCCNC(=N)N)NC(=O)C1(N)CCCCC1)C(=O)N1CCC[C@H]1C(=O)N[C@@H](CCCNC(=N)N)C(=O)N1CCC[C@H]1C(=O)N[C@@H](CCCNC(=N)N)C(=O)N1CCC[C@H]1C(=O)N1CCC[C@H]1C(=O)N[C@@H](CCCNC(=N)N)C(=O)N1CCC[C@H]1C(=O)N[C@H](C(=O)N[C@@H](CCCNC(=N)N)C(N)=O)C(C)C [Chex1Arg20] (H-[Ac6c]RPDKPRPYLPRPRPPRPVR-NH2; N-terminus assumed) | 1.6 (≈ 3.96 µg/mL) | 3.2 (≈ 7.92 µg/mL) | 3.2 (≈ 7.92 µg/mL) | 2.7 ± 0.4 x 10^4 CFU/mL | 2.7 ± 0.4 x 10^4 CFU/mL | 1.0 ± 0.6 x 10^4 CFU/mL | 1.8 ± 1.2 x 10^4 CFU/mL | 0.5 ± 0.8 x 10^4 CFU/mL | 0.8 ± 0.9 x 10^4 CFU/mL | 1.4 ± 0.7 x 10^4 CFU/mL | 1.6 ± 0.8 x 10^4 CFU/mL | 1.5 ± 1.0 x 10^4 CFU/mL | 2.5 ± 0.8 x 10^4 CFU/mL | 0.0 ± 0.0 x 10^4 CFU/mL | 0.8 ± 0.2 x 10^4 CFU/mL | only a small portion showed deep indentations | 2.7 ± 0.0 x 10^4 CFU/mL | 2.8 ± 0.1 x 10^4 CFU/mL | 0.0 ± 0.0 x 10^4 CFU/mL | 0.5 ± 0.1 x 10^4 CFU/mL | MIC (mg/L) H99 48 h ([1]; H99 (serotype A, 48 h)): 4 to 8 mg/L; MIC (μmol/L) H99 48 h ([1]; H99 (serotype A, 48 h)): 1.6 to 3.2 µmol/L; MIC (μmol/L) 1841 24 h ([2]; 1841 (serotype D, 24 h, pH 7.5)): 1.6 µmol/L (≈ 3.96 µg/mL); MIC (μmol/L) KN99α 24 h ([3]; KN99α (serotype A, mating type MATα, 24 h)): 1.6 µmol/L (≈ 3.96 µg/mL); colony formation on agar ([4]; only small colonies appearing after more than 24 h): delayed colony formation; cell count C. neoformans 1841, 24 h (C. neoformans 1841 [6]; 25 µmol/L): 0.0 ± 0.0 x 10^4 CFU/mL; cell count C. neoformans 1841, 48 h (C. neoformans 1841 [6]; 25 µmol/L): 0.0 ± 0.0 x 10^4 CFU/mL; MIC [8]: 4 to 16 µg/mL |

From article PMC10800876, “Evaluation of proline-rich antimicrobial peptides as potential lead structures for novel antimycotics against Cryptococcus neoformans” (Frontiers in Microbiology, 2024)
